{
  "source": "paper PMC5218480",
  "about": "(PLoS ONE, 2017)",
  "tested_on": "MV-4-11 cells",
  "test": "Gene expression microarray analysis (Affymetrix PrimeView) and GSEA",
  "assay_type": "cell-based, human",
  "design": "RFU PODN (11730768_x_at) / Fold change /veh PODN (11730768_x_at) / RFU LINC00158 (11744669_a_at) / Fold change /veh LINC00158 (11744669_a_at) / RFU DUSP10 (11751237_a_at) / Fold change /veh DUSP10 (11751237_a_at) / RFU ID3 (11757404_x_at) / Fold change /veh ID3 (11757404_x_at) / RFU PLEKHG5 (11737974_s_at) / Fold change /veh PLEKHG5 (11737974_s_at) / RFU LRRC4B (11730491_at) / Fold change /veh LRRC4B (11730491_at) / RFU GIMAP4 (11747438_a_at) / Fold change /veh GIMAP4 (11747438_a_at) / RFU KRT8 (11758183_x_at) / Fold change /veh KRT8 (11758183_x_at) / RFU CNN1 (11734310_a_at) / Fold change /veh CNN1 (11734310_a_at) / RFU VPS37D (11726825_at) / Fold change /veh VPS37D (11726825_at) / RFU C10orf10 (11716522_x_at) / Fold change /veh C10orf10 (11716522_x_at) / RFU KIR2DL2 /// KIR2DL4 /// KIR2DL5A /// KIR2DL5B /// KIR2DS1 /// KIR2DS2 /// KIR2DS3 /// KIR2DS4 /// KIR3DL3 /// KIR3DL3 /// KIR3DS1 (11738374_at) / Fold change /veh KIR2DL2 /// KIR2DL4 /// KIR2DL5A /// KIR2DL5B /// KIR2DS1 /// KIR2DS2 /// KIR2DS3 /// KIR2DS4 /// KIR3DL3 /// KIR3DL3 /// KIR3DS1 (11738374_at) / RFU C1QL1 (11718748_at) / Fold change /veh C1QL1 (11718748_at) / RFU TMPRSS4 (11747572_a_at) / Fold change /veh TMPRSS4 (11747572_a_at) / RFU HAMP (11756126_x_at) / Fold change /veh HAMP (11756126_x_at) / RFU RNFT2 (11725882_a_at) / Fold change /veh RNFT2 (11725882_a_at) / RFU NR4A2 (11747474_a_at) / Fold change /veh NR4A2 (11747474_a_at) / RFU ABCC12 (11746883_a_at) / Fold change /veh ABCC12 (11746883_a_at) / RFU TMEM136 (11760407_x_at) / Fold change /veh TMEM136 (11760407_x_at) / RFU CLDN22 /// WWC2 (11732394_at) / Fold change /veh CLDN22 /// WWC2 (11732394_at) / RFU HLA-DPB1 (11760878_x_at) / Fold change /veh HLA-DPB1 (11760878_x_at) / RFU SPINT1 (11716480_a_at) / Fold change /veh SPINT1 (11716480_a_at) / RFU GAP43 (11754022_s_at) / Fold change /veh GAP43 (11754022_s_at) / RFU A4GNT (11735810_at) / Fold change /veh A4GNT (11735810_at) / RFU PRB3 (11715151_x_at) / Fold change /veh PRB3 (11715151_x_at) / RFU TUBB4B (11761932_at) / Fold change /veh TUBB4B (11761932_at) / RFU CAPN14 (11732068_a_at) / Fold change /veh CAPN14 (11732068_a_at) / RFU TMCC2 (11721928_a_at) / Fold change /veh TMCC2 (11721928_a_at) / RFU IRGQ (11745062_a_at) / Fold change /veh IRGQ (11745062_a_at) / RFU FAM174B (11720279_a_at) / Fold change /veh FAM174B (11720279_a_at) / RFU TMPRSS4 (11748680_a_at) / Fold change /veh TMPRSS4 (11748680_a_at) / RFU FAM212B (11763350_a_at) / Fold change /veh FAM212B (11763350_a_at) / RFU PLEKHG5 (11743358_a_at) / Fold change /veh PLEKHG5 (11743358_a_at) / RFU ZSCAN30 (11745921_a_at) / Fold change /veh ZSCAN30 (11745921_a_at) / RFU CMKLR1 (11741424_a_at) / Fold change /veh CMKLR1 (11741424_a_at) / RFU LOC101060620 /// MAPK8IP1 (11723275_at) / Fold change /veh LOC101060620 /// MAPK8IP1 (11723275_at) / RFU SPTSSB (11747773_x_at) / Fold change /veh SPTSSB (11747773_x_at) / RFU PRSS12 (11739890_at) / Fold change /veh PRSS12 (11739890_at) / RFU BIN1 (11741810_x_at) / Fold change /veh BIN1 (11741810_x_at) / RFU WNT11 (11732464_a_at) / Fold change /veh WNT11 (11732464_a_at) / RFU C10orf10 (11716521_a_at) / Fold change /veh C10orf10 (11716521_a_at) / RFU C5orf56 (11738089_at) / Fold change /veh C5orf56 (11738089_at) / RFU CYB561 (11721691_x_at) / Fold change /veh CYB561 (11721691_x_at) / RFU ANKRD19P (11752326_a_at) / Fold change /veh ANKRD19P (11752326_a_at) / RFU OR2T12 /// OR2T33 /// OR2T8 (11738714_s_at) / Fold change /veh OR2T12 /// OR2T33 /// OR2T8 (11738714_s_at) / RFU VCAN (11748164_a_at) / Fold change /veh VCAN (11748164_a_at) / RFU JSRP1 (11732532_at) / Fold change /veh JSRP1 (11732532_at) / RFU KRTAP10-11 (11738290_x_at) / Fold change /veh KRTAP10-11 (11738290_x_at) / RFU MYO3A (11730013_a_at) / Fold change /veh MYO3A (11730013_a_at) / RFU EBF3 (11725865_a_at) / Fold change /veh EBF3 (11725865_a_at) / RFU CAMK2N1 (11719241_x_at) / Fold change /veh CAMK2N1 (11719241_x_at) / RFU C5orf56 (11738088_a_at) / Fold change /veh C5orf56 (11738088_a_at) / RFU OLFML3 (11715873_a_at) / Fold change /veh OLFML3 (11715873_a_at) / RFU LOC100653217 /// NTM (11731650_a_at) / Fold change /veh LOC100653217 /// NTM (11731650_a_at) / RFU MAPK11 (11762145_a_at) / Fold change /veh MAPK11 (11762145_a_at) / RFU FIZ1 (11724087_x_at) / Fold change /veh FIZ1 (11724087_x_at) / RFU OASL (11726364_x_at) / Fold change /veh OASL (11726364_x_at) / RFU SOX15 (11748057_x_at) / Fold change /veh SOX15 (11748057_x_at) / RFU CD79A (11719716_a_at) / Fold change /veh CD79A (11719716_a_at) / RFU HIST1H1D (11736915_at) / Fold change /veh HIST1H1D (11736915_at) / RFU CASKIN2 (11723855_a_at) / Fold change /veh CASKIN2 (11723855_a_at) / RFU LOC730098 (11760151_x_at) / Fold change /veh LOC730098 (11760151_x_at) / RFU OR4N2 (11742367_at) / Fold change /veh OR4N2 (11742367_at) / RFU PRRT2 (11749266_a_at) / Fold change /veh PRRT2 (11749266_a_at) / RFU SNX32 (11753110_a_at) / Fold change /veh SNX32 (11753110_a_at) / RFU CDHR5 (11726645_a_at) / Fold change /veh CDHR5 (11726645_a_at) / RFU RCAN1 (11760418_a_at) / Fold change /veh RCAN1 (11760418_a_at) / RFU FAM167A (11723789_a_at) / Fold change /veh FAM167A (11723789_a_at) / RFU FAM26E (11764081_at) / Fold change /veh FAM26E (11764081_at) / RFU ISYNA1 (11749810_s_at) / Fold change /veh ISYNA1 (11749810_s_at) / RFU ACY1 (11761880_at) / Fold change /veh ACY1 (11761880_at) / RFU 11764098_at / Fold change /veh 11764098_at / RFU SAMD14 (11745864_x_at) / Fold change /veh SAMD14 (11745864_x_at) / RFU NPB (11741838_a_at) / Fold change /veh NPB (11741838_a_at) / RFU TMPRSS6 (11731388_a_at) / Fold change /veh TMPRSS6 (11731388_a_at) / RFU KRTAP10-2 (11738614_at) / Fold change /veh KRTAP10-2 (11738614_at) / RFU ARHGAP8 /// PRR5-ARHGAP8 (11727945_x_at) / Fold change /veh ARHGAP8 /// PRR5-ARHGAP8 (11727945_x_at) / RFU KRTAP5-7 /// NADSYN1 (11734609_at) / Fold change /veh KRTAP5-7 /// NADSYN1 (11734609_at) / RFU RASL12 (11751679_a_at) / Fold change /veh RASL12 (11751679_a_at) / RFU CDKN2B (11736163_a_at) / Fold change /veh CDKN2B (11736163_a_at) / RFU PRF1 (11729649_at) / Fold change /veh PRF1 (11729649_at) / RFU, ZNF638 /// ZNF638-IT1 / Fold change vs veh, ZNF638 /// ZNF638-IT1 / RFU, PANK3 / Fold change vs veh, PANK3 / RFU, SH3YL1 / Fold change vs veh, SH3YL1 / RFU, ZEB2 / Fold change vs veh, ZEB2 / RFU, NRIP1 / Fold change vs veh, NRIP1 / RFU, PTTG1IP / Fold change vs veh, PTTG1IP / RFU, CAPN2 / Fold change vs veh, CAPN2 / RFU, MED14 / Fold change vs veh, MED14 / RFU, SNORA58 / Fold change vs veh, SNORA58 / RFU, C1orf63 / Fold change vs veh, C1orf63 / RFU, LRRFIP1 / Fold change vs veh, LRRFIP1 / RFU, NDUFAF7 / Fold change vs veh, NDUFAF7 / RFU, SLC12A2 / Fold change vs veh, SLC12A2 / RFU, IBTK / Fold change vs veh, IBTK / RFU, ESF1 / Fold change vs veh, ESF1 / Fold change vs veh, TMEM50B / RFU, TAOK1 / Fold change vs veh, TAOK1 / RFU, ACBD3 / Fold change vs veh, ACBD3 / RFU, TMA16 / Fold change vs veh, TMA16 / RFU, RWDD3 / Fold change vs veh, RWDD3 / RFU, BCAT1 / Fold change vs veh, BCAT1 / RFU, EDEM3 / Fold change vs veh, EDEM3 / RFU, TMEM33 / Fold change vs veh, TMEM33 / RFU, WDR75 / Fold change vs veh, WDR75 / RFU, AHCTF1 / Fold change vs veh, AHCTF1 / RFU, TFRC / Fold change vs veh, TFRC / RFU, ZDHHC17 / Fold change vs veh, ZDHHC17 / RFU, NOM1 / Fold change vs veh, NOM1 / RFU, ARL8B / Fold change vs veh, ARL8B / RFU, ZBTB11 / Fold change vs veh, ZBTB11 / RFU, TAMM41 / Fold change vs veh, TAMM41 / RFU, KIAA1704 /// LOC100996395 / Fold change vs veh, KIAA1704 /// LOC100996395 / RFU, ING1 / Fold change vs veh, ING1 / RFU, TRMT61B / Fold change vs veh, TRMT61B / RFU, FUBP3 / Fold change vs veh, FUBP3 / RFU, TP53 / Fold change vs veh, TP53 / RFU, TNKS2 / Fold change vs veh, TNKS2 / RFU, ZFP14 / Fold change vs veh, ZFP14 / RFU, ACTR2 / Fold change vs veh, ACTR2 / RFU, PPP3R1 / Fold change vs veh, PPP3R1 / RFU, PIK3R1 / Fold change vs veh, PIK3R1 / RFU, HNRNPA1 / Fold change vs veh, HNRNPA1 / RFU, RNF170 / Fold change vs veh, RNF170 / RFU, ZNF28 / Fold change vs veh, ZNF28 / RFU, RNGTT / Fold change vs veh, RNGTT / RFU, OGT / Fold change vs veh, OGT / RFU, BRD1 / Fold change vs veh, BRD1 / RFU, MARS / Fold change vs veh, MARS / RFU, ZNF655 / Fold change vs veh, ZNF655 / RFU, FAHD1 / Fold change vs veh, FAHD1 / RFU, BDP1 / Fold change vs veh, BDP1 / RFU, LRRCC1 / Fold change vs veh, LRRCC1 / RFU, ARID1A / Fold change vs veh, ARID1A / RFU, ZNF146 / Fold change vs veh, ZNF146 / RFU, ZNF330 / Fold change vs veh, ZNF330 / RFU, GPN3 / Fold change vs veh, GPN3 / RFU, C9orf123 / Fold change vs veh, C9orf123 / RFU, N4BP2L2 / Fold change vs veh, N4BP2L2 / RFU, ARFIP1 / Fold change vs veh, ARFIP1 / RFU, FAM179B / Fold change vs veh, FAM179B / RFU, BCL10 / Fold change vs veh, BCL10 / RFU, UHRF1BP1L / Fold change vs veh, UHRF1BP1L / RFU, BET1 / Fold change vs veh, BET1 / RFU, CNOT2 / Fold change vs veh, CNOT2 / RFU, ZNF268 / Fold change vs veh, ZNF268 / Fold change vs veh, ZNF507 / RFU, DGCR2 / Fold change vs veh, DGCR2 / RFU, WDSUB1 / Fold change vs veh, WDSUB1 / Fold change vs veh, HSP90B1 /// MIR3652 / RFU, ADSS / Fold change vs veh, ADSS / RFU, GK / Fold change vs veh, GK / RFU, ZNF148 / Fold change vs veh, ZNF148 / RFU, TAF9 / Fold change vs veh, TAF9 / RFU, SLC1A5 / Fold change vs veh, SLC1A5 / RFU, SLMO2 / Fold change vs veh, SLMO2 / RFU, ABCC4 / Fold change vs veh, ABCC4 / RFU, LOC101060439 /// RAP1B / Fold change vs veh, LOC101060439 /// RAP1B / RFU, RFX7 / Fold change vs veh, RFX7 / RFU, GTPBP10 / Fold change vs veh, GTPBP10 / RFU, CNEP1R1 / Fold change vs veh, CNEP1R1 / RFU, BIVM-ERCC5 /// ERCC5 / Fold change vs veh, BIVM-ERCC5 /// ERCC5 / RFU, ILF3 / Fold change vs veh, ILF3 / RFU 11762660_at / Fold change /veh 11762660_at / RFU VCAN (11757783_s_at) / Fold change /veh VCAN (11757783_s_at) / RFU DDX43 (11728927_at) / Fold change /veh DDX43 (11728927_at) / RFU KRT8 (11758188_x_at) / Fold change /veh KRT8 (11758188_x_at) / RFU NKD1 (11759106_at) / Fold change /veh NKD1 (11759106_at) / RFU SRD5A1 (11742802_a_at) / Fold change /veh SRD5A1 (11742802_a_at) / RFU TPSAB1 /// TPSB2 (11721975_s_at) / Fold change /veh TPSAB1 /// TPSB2 (11721975_s_at) / RFU GSTM3 (11746129_a_at) / Fold change /veh GSTM3 (11746129_a_at) / RFU IL23R (11737362_x_at) / Fold change /veh IL23R (11737362_x_at) / RFU TMEM51 (11727254_a_at) / Fold change /veh TMEM51 (11727254_a_at) / RFU PIWIL2 (11732686_x_at) / Fold change /veh PIWIL2 (11732686_x_at) / RFU ORM1 (11744905_x_at) / Fold change /veh ORM1 (11744905_x_at) / RFU CCDC152 (11743942_at) / Fold change /veh CCDC152 (11743942_at) / RFU ECM1 (11717891_a_at) / Fold change /veh ECM1 (11717891_a_at) / RFU IL23R (11748794_a_at) / Fold change /veh IL23R (11748794_a_at) / RFU TNFAIP8L3 (11732012_x_at) / Fold change /veh TNFAIP8L3 (11732012_x_at) / RFU MBOAT4 (11741988_at) / Fold change /veh MBOAT4 (11741988_at) / RFU 11764193_at / Fold change /veh 11764193_at / RFU TMEM53 (11763286_at) / Fold change /veh TMEM53 (11763286_at) / RFU MAGEB2 (11727129_at) / Fold change /veh MAGEB2 (11727129_at) / RFU TMEM200A (11744735_a_at) / Fold change /veh TMEM200A (11744735_a_at) / RFU CCDC152 (11751479_a_at) / Fold change /veh CCDC152 (11751479_a_at) / RFU FAM211A (11726209_a_at) / Fold change /veh FAM211A (11726209_a_at) / RFU RGS16 (11746705_a_at) / Fold change /veh RGS16 (11746705_a_at) / RFU VCAN (11755009_s_at) / Fold change /veh VCAN (11755009_s_at) / RFU RHOB (11743442_s_at) / Fold change /veh RHOB (11743442_s_at) / RFU RGS16 (11720943_a_at) / Fold change /veh RGS16 (11720943_a_at) / RFU RGS16 (11720944_at) / Fold change /veh RGS16 (11720944_at) / RFU, VPS4B / Fold change vs veh, VPS4B / RFU, CREB1 / Fold change vs veh, CREB1 / RFU, DNAJC13 / Fold change vs veh, DNAJC13 / RFU, GNAQ / Fold change vs veh, GNAQ / RFU, CDK5R1 / Fold change vs veh, CDK5R1 / RFU, ZRANB3 / Fold change vs veh, ZRANB3 / RFU, CUL4A / Fold change vs veh, CUL4A / RFU, CCNY / Fold change vs veh, CCNY / RFU, UFL1 / Fold change vs veh, UFL1 / RFU, COG3 / Fold change vs veh, COG3 / RFU, DIAPH2 / Fold change vs veh, DIAPH2 / RFU, SKA2 / Fold change vs veh, SKA2 / RFU, AFF3 / Fold change vs veh, AFF3 / RFU, LMF1 / Fold change vs veh, LMF1 / RFU, IPO11 / Fold change vs veh, IPO11 / RFU, DFFB / Fold change vs veh, DFFB / RFU, FOXP1 / Fold change vs veh, FOXP1 / RFU, CARD8 / Fold change vs veh, CARD8 / RFU, STRN3 / Fold change vs veh, STRN3 / RFU, ADK / Fold change vs veh, ADK / RFU, RASSF2 / Fold change vs veh, RASSF2 / RFU, WIPF1 / Fold change vs veh, WIPF1 / RFU, LARP1B / Fold change vs veh, LARP1B / RFU, RASA1 / Fold change vs veh, RASA1 / RFU, RB1 / Fold change vs veh, RB1 / RFU, PPFIA1 / Fold change vs veh, PPFIA1 / RFU, MAT2A / Fold change vs veh, MAT2A / RFU, CCT5 / Fold change vs veh, CCT5 / RFU, WDR92 / Fold change vs veh, WDR92 / RFU, CUX1 / Fold change vs veh, CUX1 / RFU, TTC7A / Fold change vs veh, TTC7A / RFU, TMEM135 / Fold change vs veh, TMEM135 / RFU, DEPTOR / Fold change vs veh, DEPTOR / RFU, CPM / Fold change vs veh, CPM / RFU, DNAJB6 / Fold change vs veh, DNAJB6 / RFU, CACNA2D3 / Fold change vs veh, CACNA2D3 / RFU, DTX4 / Fold change vs veh, DTX4 / RFU, TFCP2 / Fold change vs veh, TFCP2 / RFU, GMCL1 /// GMCL1P1 / Fold change vs veh, GMCL1 /// GMCL1P1 / RFU, AEBP2 / Fold change vs veh, AEBP2 / RFU, SNHG1 /// SNORD22 /// SNORD25 /// SNORD26 /// SNORD27 /// SNORD28 /// SNORD29 /// SNORD31 / Fold change vs veh, SNHG1 /// SNORD22 /// SNORD25 /// SNORD26 /// SNORD27 /// SNORD28 /// SNORD29 /// SNORD31 / Fold change (Aza/veh), C12orf56 (ProbeSet 11735607_a_at) / Fold change (ACY-1035/veh), C12orf56 (ProbeSet 11735607_a_at) / Fold change (Aza/veh), FGFR1OP (ProbeSet 11751329_s_at) / Fold change (ACY-1035/veh), FGFR1OP (ProbeSet 11751329_s_at) / Fold change (Aza/veh), VPS36 (ProbeSet 11739960_a_at) / Fold change (ACY-1035/veh), VPS36 (ProbeSet 11739960_a_at) / RFU SYPL1 (11715823_x_at) / Fold change /veh SYPL1 (11715823_x_at) / RFU IGFBP7 (11715501_s_at) / Fold change /veh IGFBP7 (11715501_s_at) / RFU REEP3 (11722064_at) / Fold change /veh REEP3 (11722064_at) / RFU IGLL1 (11728026_x_at) / Fold change /veh IGLL1 (11728026_x_at): dose or concentration left out as unconfirmed",
  "conditions": "MV-4-11 cells, 48 hours",
  "data": [
    {"smiles": "Nc1ncn([C@@H]2O[C@H](CO)[C@@H](O)[C@H]2O)c(=O)n1", "note": "[azacitidine]", "values": [
      {"measurement": "RFU CD79A (11719716_a_at)", "value": 8.73, "unit": "RFU"}
    ]}
  ]
}
